Experimental data taken from patent US9044016B2, “N-thio-anthranilamide compounds and their use as pesticides” (BASF SE, priority 2011, dated 2015).

Experiments:
Assay type in all cases: in vivo
[1] = test system: Mediterranean Fruitfly (Ceratitis capitata); assay: CE.3 Mediterranean fruitfly, comparison with prior art compounds; settings: 5 days; for Mediterranean fruitfly egg and larval mortality vs. untreated control (%): sprayed onto insect diet with eggs
Method: (§1) The activity summarized in the tables hereinbelow are given as percentage of mortality in comparison with untreated control
(§2) For evaluating control of Mediterranean fruitfly (Ceratitis capitata) the test unit consisted of microtiter plates containing an insect diet and 50-80 C. capitata eggs.
(§3) The compounds were formulated using a solution containing 75% v/v water and 25% v/v DMSO. Different concentrations of formulated compounds were sprayed onto the insect diet at 5 μl, using a custom built micro atomizer, at two replications.
After application, microtiter plates were incubated at about 28±1° C. and about 80±5% relative humidity for 5 days. Egg and larval mortality was then visually assessed.

[2] = test system: Boll Weevil (Anthonomus grandis); assay: B.9 Boll weevil, insect diet with eggs in 96-well plates; settings: 120 h, egg and larval mortality, 5 days, read-out: mortality in comparison with untreated controls
Method: For evaluating control of boll weevil (Anthonomus grandis) the test unit consisted of 96-well-microtiter plates containing an insect diet and 5-10 A. grandis eggs.
as §3
After application, microtiter plates were incubated at about 25+1° C. and about 75+5% relative humidity for 5 days. Egg and larval mortality was then visually assessed.

[3] = test system: Orchid Thrips (Dichromothrips Corbetti); assay: B.5 Orchid thrips, floral-immersion technique; settings: dipped orchid flowers, adult thrips, 72 hours after treatment, read-out: mortality in comparison with untreated controls
Method: Dichromothrips corbetti adults used for bioassay were obtained from a colony maintained continuously under laboratory conditions. For testing purposes, the test compound is diluted in a 1:1 mixture of acetone:water (vol:vol), plus 0.01% vol/vol Alkamuls® EL 620 surfactant.
Thrips potency of each compound was evaluated by using a floral-immersion technique. Plastic petri dishes were used as test arenas. All petals of individual, intact orchid flowers were dipped into treatment solution and allowed to dry. Treated flowers were placed into individual petri dishes along with about 20 adult thrips. The petri dishes were then covered with lids. All test arenas were held under continuous light and a temperature of about 28° C. for duration of the assay. After 3 days, the numbers of live thrips were counted on each flower, and along inner walls of each petri dish. The percentmortality was recorded 72 hours after treatment.

[4] = test system: Western Corn Rootworm (Diabrotica virgifera virgifera); assay: CE.2 Western corn rootworm assay, treated soil; settings: second-instar larvae, 3 days after infestation
Method: as §1
The active compound was applied in acetone at rates of 5 and 50 ppm a.i./soil (w/w). Treatments were applied in solution to sifted, North Carolina loamy sand (Sandhill soil) in a plastic bag. Treatments were thoroughly incorporated by sealing and shaking each bag by hand and allowing the solution to soak through the soil mass for at least 10 minutes before unsealing. The bags were then kept open in a fume hood overnight to evaporate the solvent from the soil.
One day after treatment (DAT) distilled water for moisture and water-soaked millet seed (Panicum miliaceum ‘white millet’) as a food source were added to each bag and mixed in thoroughly. 11 cm^3 of millet and soil mixture were dispensed into a 1 oz. plastic cup. Each cup was infested with 10 western corn rootworm second-instar larvae. Each cup or group of four cells was a replicate, and replication was 3×. The test was maintained in incubators at 26° C. in the dark. Mortality was evaluated 3 days after infestation (DAI) and mean percent mortality was calculated.

[5] = test system: Diamond Back Moth (Plutella xylostella); assay: B.2 Diamond back moth, cabbage leaf dip; settings: foliar, dipped cabbage leaves, 3rd instar larvae, 72 hours after treatment, read-out: mortality in comparison with untreated controls
Method: The active compound is dissolved at the desired concentration in a mixture of 1:1 (vol:vol) distilled water:aceteone. Surfactant (Alkamuls® EL 620) is added at a rate of 0.1% (vol/vol).The test solution is prepared at the day of use.
Leaves of cabbage were dipped in test solution and air-dried. Treated leaves were placed in petri dish eslined with moist filter paper and inoculated with ten 3rd instar larvae. Mortality was recorded 72 hours after treatment. Feeding damages were also recorded using a scale of 0-100%.

[6] = test system: Green Peach Aphid (Myzus persicae); assay: B.3 Green peach aphid, systemic, artificial diet in 96-well plates; settings: 72 h, adult aphids, 3 days, read-out: mortality in comparison with untreated controls
From the text: For evaluating control of green peach aphid (Myzus persicae) through systemic means the test unit consisted of 96-well-microtiter plates containing liquid artificial diet under an artificial membrane.
The compounds were formulated using a solution containing 75% v/v water and 25% v/v DMSO. Different concentrations of formulated compounds were pipetted into the aphid diet, using a custom built pipetter, at two replications.
After application, 5 to 8 adult aphids were placed on the artificial membrane inside the microtiter plate wells. The aphids were then allowed to suck on the treated aphid diet and incubated at about 23+1° C. and about 50+5% relative humidity for 3 days. Aphid mortality and fecundity was then visually assessed.

[7] = test system: Mediterranean Fruitfly (Ceratitis capitata); assay: B.4 Mediterranean fruitfly, insect diet with eggs in microtiter plates; settings: 120 h, egg and larval mortality, 5 days, read-out: mortality in comparison with untreated controls
Method: as §2, §3
(§4) After application, microtiter plates were incubated at about 28+1° C. and about 80+5% relative humidity for 5 days. Egg and larval mortality was then visually assessed.

[8] = test system: Tobacco Budworm (Heliothis virescens); assay: B.8 Tobacco budworm I, insect diet with eggs in 96-well plates; settings: 120 h, egg and larval mortality, 5 days, read-out: mortality in comparison with untreated controls
Method: For evaluating control of tobacco budworm (Heliothis virescens) the test unit consisted of 96-well-microtiter plates containing an insect diet and 15-25 H. virescens eggs.
The compounds were formulated using a solution containing 75% v/v water and 25% v/v DMSO. Different concentrations of formulated compounds were sprayed onto the insect diet at 10 μl, using a custom built micro atomizer, at two replications.
as §4

[9] = test system: Cowpea Aphid (Aphis craccivora); assay: CE.1 Cowpea aphid, comparison with prior art compounds; settings: for % activity (mortality of Cowpea aphid in %, vs. untreated control): sprayed cowpea plants, assessed after 72 hours
Method: as §1
The active compound was dissolved at the desired concentration in a mixture of 1:1 (vol:vol) distilled water:acetone. Surfactant (Alkamuls® EL 620) is added at a rate of 0.1% (vol/vol). The test solution was prepared at the day of use.
(§5) Potted cowpea plants were colonized with approximately 50 to 100 aphids of various stages by manually transferring a leaf tissue cut from infested plant 24 hours before application. Plants were sprayed after the pest population has been recorded. Treated plants are maintained on light carts at about 28° C. Percent mortality was assessed after 72 hours.

[10] = test system: Cowpea Aphid (Aphis craccivora); assay: B.1 Cowpea aphid, sprayed potted cowpea plants; settings: assessed after 72 hours, read-out: mortality in comparison with untreated controls
Method: The active compound is dissolved at the desired concentration in a mixture of 1:1 (vol:vol) distilled water:acetone. Surfactant (Alkamuls® EL 620) is added at a rate of 0.1% (vol/vol). The test solution is prepared at the day of use.
as §5

[11] = test system: Vetch Aphid (Megoura Viciae); assay: B.7 Vetch aphid, broad bean leaf disks in 24-well plates; settings: foliar, 120 h, sprayed leaf disks, adult aphids, 5 days, read-out: mortality in comparison with untreated controls
Method: For evaluating control of vetch aphid (Megoura viciae) through contact or systemic means the test unit consisted of 24-well-microtiter plates containing broad bean leaf disks.
The compounds were formulated using a solution containing 75% v/v water and 25% v/v DMSO. Different concentrations of formulated compounds were sprayed onto the leaf disks at 2.5 μl, using a custom built micro atomizer, at two replications.
After application, the leaf disks were air-dried and 5 to 8 adult aphids placed on the leaf disks inside the microtiter plate wells. The aphids were then allowed to suck on the treated leaf disks and incubated at about 23+1° C. and about 50+5% relative humidity for 5 days. Aphid mortality and fecundity was then visually assessed.

| SMILES | activity against Mediterranean fruitfly in comparison with comparative compound CC-1 ([1]; egg and larval mortality) | mortality at 2500 ppm [2] [%] | mortality at 300 ppm [3] [%] | % activity (mortality of Western corn rootworm in %, vs. untreated control) ([4]; 5 ppm a.i./soil (w/w)) [%] | % activity (mortality of Western corn rootworm in %, vs. untreated control) ([4]; 50 ppm a.i./soil (w/w)) [%] | Mediterranean fruitfly egg and larval mortality vs. untreated control (%) ([1]; 1415 ppm active ingredient) | Mediterranean fruitfly egg and larval mortality vs. untreated control (%) ([1]; 2500 ppm active ingredient) | mortality at 300 ppm [5] [%] | mortality at 2500 ppm [6] [%] | mortality at 2500 ppm [7] [%] | mortality at 2500 ppm [8] [%] | % activity (mortality of Cowpea aphid in %, vs. untreated control) ([9]; 100 ppm active ingredient) [%] | % activity (mortality of Cowpea aphid in %, vs. untreated control) ([9]; 300 ppm active ingredient) [%] | % activity (mortality of Cowpea aphid in %, vs. untreated control) ([9]; 500 ppm active ingredient) [%] | activity against Cowpea aphid in comparison with comparative compound CC-3 ([9]; percent mortality after 72 hours) | mortality at 300 ppm [10] [%] | mortality at 2500 ppm [11] [%] |
| --- | --- | --- | --- | --- | --- | --- | --- | --- | --- | --- | --- | --- | --- | --- | --- | --- | --- |
| O=C(N=S1CCCC1)c1cc(Cl)cc(Cl)c1NC(=O)c1cc(C(F)(F)F)nn1-c1ncccc1Cl [S.3, 2-(3-chloro-2-pyridyl)-N-[2,4-dichloro-6-[(tetrahydro-λ^4-thiophenidene)carbamoyl]phenyl]-5-(trifluoromethyl)pyrazole-3-carboxamide] | superior activity |  |  |  |  |  |  |  |  |  |  |  |  |  |  |  |  |
| CC(C)S(=NC(=O)c1cc(Cl)cc(Cl)c1NC(=O)c1cc(C(F)(F)F)nn1-c1ncccc1Cl)C(C)C [S.1, 2-(3-chloro-2-pyridyl)-N-[2,4-dichloro-6-[(bis-2-propyl-λ^4-sulfanylidene)carbamoyl]phenyl]-5-(trifluoromethyl)pyrazole-3-carboxamide] |  | > 95 | > 75 | 100 | 100 | 100 | 100 | > 75 | > 75 | > 75 | > 75 | 100 | 100 | 100 | superior activity | > 75 | > 75 |
| CCS(CC)=NC(=O)c1cc(Cl)cc(C)c1NC(=O)c1cc(C(F)(F)F)nn1-c1ncccc1Cl [CC-2, reference compound] |  |  |  | 21 | 93 |  |  |  |  |  |  |  |  |  |  |  |  |
| CCS(CC)=NC(=O)c1cc(Cl)cc(Cl)c1NC(=O)c1cc(C(F)(F)F)nn1-c1ncccc1Cl [S.6, N-[4,6-dichloro-2-[(diethyl-λ^4-sulfanylidene)carbamoyl]-phenyl]-2-(3-chloro-2-pyridyl)-5-(trifluoromethyl)pyrazole-3-carboxamide] |  | > 95 | > 75 | 100 | 100 |  |  | > 75 | > 75 |  | > 75 |  |  |  |  | > 75 | > 75 |
